Data taken from ChEMBL document CHEMBL4507291 (2021).

Experiments:
[1] = molecular target: T1, Ephrin type-A receptor 3 (Homo sapiens) (UniProt P29320); test: EPHA3 Kinase screen; settings: Compound concentration 1.0 uM
T1 sequence (whole entry): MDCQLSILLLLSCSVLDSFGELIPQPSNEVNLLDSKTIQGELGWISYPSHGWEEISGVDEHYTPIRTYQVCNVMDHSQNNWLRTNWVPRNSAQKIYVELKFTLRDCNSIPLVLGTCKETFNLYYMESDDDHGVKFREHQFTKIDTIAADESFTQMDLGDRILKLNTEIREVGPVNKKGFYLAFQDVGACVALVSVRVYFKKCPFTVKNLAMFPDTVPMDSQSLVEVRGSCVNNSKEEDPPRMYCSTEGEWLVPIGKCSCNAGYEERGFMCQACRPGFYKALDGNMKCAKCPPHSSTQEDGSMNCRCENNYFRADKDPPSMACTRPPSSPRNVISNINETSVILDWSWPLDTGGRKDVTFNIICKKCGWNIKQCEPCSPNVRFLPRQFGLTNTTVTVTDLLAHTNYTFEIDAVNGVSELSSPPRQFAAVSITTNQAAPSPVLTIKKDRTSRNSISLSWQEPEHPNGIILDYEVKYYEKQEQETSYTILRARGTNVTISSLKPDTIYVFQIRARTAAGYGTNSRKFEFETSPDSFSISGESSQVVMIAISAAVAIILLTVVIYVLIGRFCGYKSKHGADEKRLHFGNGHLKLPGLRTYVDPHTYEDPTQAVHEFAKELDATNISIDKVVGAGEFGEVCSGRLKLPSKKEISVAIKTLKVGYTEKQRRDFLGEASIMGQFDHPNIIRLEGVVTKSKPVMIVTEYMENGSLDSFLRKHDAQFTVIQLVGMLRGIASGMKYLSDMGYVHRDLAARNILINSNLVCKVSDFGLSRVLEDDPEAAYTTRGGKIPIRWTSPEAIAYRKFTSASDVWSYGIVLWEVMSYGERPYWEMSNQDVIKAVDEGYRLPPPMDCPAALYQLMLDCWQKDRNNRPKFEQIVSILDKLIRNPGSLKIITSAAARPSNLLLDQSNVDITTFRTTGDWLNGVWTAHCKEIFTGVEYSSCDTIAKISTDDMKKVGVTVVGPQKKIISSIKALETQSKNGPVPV

[2] = molecular target: Tyrosine-protein kinase CSK (Homo sapiens) (UniProt P41240); test: CSK Kinase screen; settings: Compound concentration 1.0 uM
Chain of Tyrosine-protein kinase CSK (Homo sapiens) (P41240 2-450 limits assumed): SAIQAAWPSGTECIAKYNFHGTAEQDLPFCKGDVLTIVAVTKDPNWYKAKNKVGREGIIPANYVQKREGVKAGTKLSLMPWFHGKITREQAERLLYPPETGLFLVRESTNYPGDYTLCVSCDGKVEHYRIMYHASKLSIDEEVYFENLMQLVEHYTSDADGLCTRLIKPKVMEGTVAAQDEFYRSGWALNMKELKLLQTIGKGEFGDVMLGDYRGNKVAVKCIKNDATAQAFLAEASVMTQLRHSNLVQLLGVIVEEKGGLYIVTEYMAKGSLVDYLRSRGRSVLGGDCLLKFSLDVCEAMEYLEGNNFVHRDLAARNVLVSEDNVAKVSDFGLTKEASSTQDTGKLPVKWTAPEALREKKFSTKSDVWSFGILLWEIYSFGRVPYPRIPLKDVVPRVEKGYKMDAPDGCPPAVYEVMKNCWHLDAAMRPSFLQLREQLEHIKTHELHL

[3] = molecular target: Neuropeptide Y receptor type 2 (Homo sapiens) (UniProt P49146); test: Inhibition of Neuropeptide Y Y2 at 10 µM in the Eurofins-Panlabs radioligand binding assay (Eurofins_assay_257110); settings: Compound concentration 10.0 uM
Chain of Neuropeptide Y receptor type 2 (Homo sapiens) (P49146 whole entry): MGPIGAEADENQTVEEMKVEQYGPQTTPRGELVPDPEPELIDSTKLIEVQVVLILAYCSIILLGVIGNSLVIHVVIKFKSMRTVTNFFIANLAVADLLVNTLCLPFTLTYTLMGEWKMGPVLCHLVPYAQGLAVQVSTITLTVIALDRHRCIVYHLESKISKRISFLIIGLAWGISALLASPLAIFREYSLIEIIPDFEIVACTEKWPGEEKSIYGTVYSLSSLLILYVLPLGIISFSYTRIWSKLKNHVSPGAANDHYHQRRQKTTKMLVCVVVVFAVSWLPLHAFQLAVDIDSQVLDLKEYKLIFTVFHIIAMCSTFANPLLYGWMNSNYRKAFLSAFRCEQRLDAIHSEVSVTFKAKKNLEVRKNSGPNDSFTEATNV

[4] = molecular target: Ribosomal protein S6 kinase alpha-4 (Homo sapiens) (UniProt O75676); test: RPS6KA4 (MSK2) Kinase screen; settings: Compound concentration 1.0 uM
Chain of Ribosomal protein S6 kinase alpha-4 (Homo sapiens) (O75676 whole entry, looked up): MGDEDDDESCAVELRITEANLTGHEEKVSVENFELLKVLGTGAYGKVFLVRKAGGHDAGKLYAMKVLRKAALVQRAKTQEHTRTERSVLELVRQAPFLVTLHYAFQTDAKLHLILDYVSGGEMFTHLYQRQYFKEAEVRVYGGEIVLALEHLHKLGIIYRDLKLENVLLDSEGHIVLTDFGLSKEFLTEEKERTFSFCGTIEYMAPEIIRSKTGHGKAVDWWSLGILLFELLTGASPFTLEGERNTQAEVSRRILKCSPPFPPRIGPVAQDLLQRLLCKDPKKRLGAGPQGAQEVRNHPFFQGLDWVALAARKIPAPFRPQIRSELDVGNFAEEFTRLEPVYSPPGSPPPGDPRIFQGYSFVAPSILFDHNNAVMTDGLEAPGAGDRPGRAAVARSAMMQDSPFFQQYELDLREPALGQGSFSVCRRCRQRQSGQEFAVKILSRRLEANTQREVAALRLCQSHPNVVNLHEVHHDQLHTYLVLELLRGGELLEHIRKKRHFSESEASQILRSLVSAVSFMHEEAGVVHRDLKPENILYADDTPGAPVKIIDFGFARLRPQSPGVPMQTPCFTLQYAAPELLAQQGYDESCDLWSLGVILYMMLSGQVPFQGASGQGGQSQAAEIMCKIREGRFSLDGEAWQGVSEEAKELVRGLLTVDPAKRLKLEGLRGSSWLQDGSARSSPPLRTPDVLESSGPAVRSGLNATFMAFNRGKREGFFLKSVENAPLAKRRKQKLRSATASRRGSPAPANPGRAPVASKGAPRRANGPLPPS

[5] = test system: Mast/stem cell growth factor receptor Kit (Homo sapiens), P10721 [V654A]; test: KIT V654A Kinase screen; settings: Compound concentration 1.0 uM
Chain of Mast/stem cell growth factor receptor Kit (Homo sapiens), P10721 [V654A] (P10721 whole entry V654A): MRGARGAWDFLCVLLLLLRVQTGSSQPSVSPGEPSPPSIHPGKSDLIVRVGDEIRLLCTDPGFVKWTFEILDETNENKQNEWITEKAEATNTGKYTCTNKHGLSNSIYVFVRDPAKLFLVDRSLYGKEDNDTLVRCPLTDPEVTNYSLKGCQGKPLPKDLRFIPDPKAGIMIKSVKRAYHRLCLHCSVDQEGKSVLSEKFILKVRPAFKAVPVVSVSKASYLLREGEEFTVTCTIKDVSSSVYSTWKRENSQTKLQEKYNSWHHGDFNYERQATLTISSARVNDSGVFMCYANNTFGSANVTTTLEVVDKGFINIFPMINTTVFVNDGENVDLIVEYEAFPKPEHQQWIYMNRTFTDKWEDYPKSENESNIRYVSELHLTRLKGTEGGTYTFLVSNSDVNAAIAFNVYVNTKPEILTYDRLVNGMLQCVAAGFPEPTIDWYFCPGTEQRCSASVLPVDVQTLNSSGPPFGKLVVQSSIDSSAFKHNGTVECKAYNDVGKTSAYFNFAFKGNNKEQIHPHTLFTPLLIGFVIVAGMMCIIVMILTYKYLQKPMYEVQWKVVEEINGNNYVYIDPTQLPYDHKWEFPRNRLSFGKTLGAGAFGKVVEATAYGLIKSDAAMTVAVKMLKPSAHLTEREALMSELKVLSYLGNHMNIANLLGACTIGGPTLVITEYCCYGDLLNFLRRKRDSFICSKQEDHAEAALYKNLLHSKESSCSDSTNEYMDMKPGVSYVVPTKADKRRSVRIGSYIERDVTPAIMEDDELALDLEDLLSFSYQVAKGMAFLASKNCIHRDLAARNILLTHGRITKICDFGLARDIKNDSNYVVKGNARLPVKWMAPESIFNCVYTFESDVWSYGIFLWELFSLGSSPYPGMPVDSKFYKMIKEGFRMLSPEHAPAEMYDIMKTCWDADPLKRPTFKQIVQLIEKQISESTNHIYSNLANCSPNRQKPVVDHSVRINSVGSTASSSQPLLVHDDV

[6] = molecular target: T2, Serine/threonine-protein kinase TAO3 (Homo sapiens) (UniProt Q9H2K8); test: TAOK3 (JIK) Kinase screen; settings: Compound concentration 1.0 uM
T2 sequence (whole entry): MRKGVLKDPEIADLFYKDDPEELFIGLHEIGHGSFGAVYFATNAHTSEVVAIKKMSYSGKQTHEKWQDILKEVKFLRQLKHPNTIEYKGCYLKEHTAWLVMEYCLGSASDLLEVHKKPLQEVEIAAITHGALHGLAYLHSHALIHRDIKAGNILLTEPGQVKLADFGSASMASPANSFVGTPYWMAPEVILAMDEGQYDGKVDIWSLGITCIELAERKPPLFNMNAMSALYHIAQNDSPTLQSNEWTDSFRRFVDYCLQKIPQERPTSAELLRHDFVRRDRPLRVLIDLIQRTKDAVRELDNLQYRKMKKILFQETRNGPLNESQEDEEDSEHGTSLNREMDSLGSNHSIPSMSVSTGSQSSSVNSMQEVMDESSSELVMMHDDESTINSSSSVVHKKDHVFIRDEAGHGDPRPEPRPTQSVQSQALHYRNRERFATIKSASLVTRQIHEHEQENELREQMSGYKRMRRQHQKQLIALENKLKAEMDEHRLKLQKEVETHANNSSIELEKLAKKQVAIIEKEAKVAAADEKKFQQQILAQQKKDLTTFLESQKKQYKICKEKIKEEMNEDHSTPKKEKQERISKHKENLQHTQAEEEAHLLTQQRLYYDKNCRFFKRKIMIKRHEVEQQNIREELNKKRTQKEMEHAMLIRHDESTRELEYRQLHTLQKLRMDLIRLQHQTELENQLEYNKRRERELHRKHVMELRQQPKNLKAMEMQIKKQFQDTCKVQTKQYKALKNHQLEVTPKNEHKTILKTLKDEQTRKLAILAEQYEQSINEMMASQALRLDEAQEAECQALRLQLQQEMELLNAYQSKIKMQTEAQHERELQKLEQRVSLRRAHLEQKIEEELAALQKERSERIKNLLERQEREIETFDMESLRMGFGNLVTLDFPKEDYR

[7] = molecular target: Ribosomal protein S6 kinase alpha-6 (Homo sapiens) (UniProt Q9UK32); test: RPS6KA6 (RSK4) Kinase screen; settings: Compound concentration 1.0 uM
Chain of Ribosomal protein S6 kinase alpha-6 (Homo sapiens) (Q9UK32 whole entry): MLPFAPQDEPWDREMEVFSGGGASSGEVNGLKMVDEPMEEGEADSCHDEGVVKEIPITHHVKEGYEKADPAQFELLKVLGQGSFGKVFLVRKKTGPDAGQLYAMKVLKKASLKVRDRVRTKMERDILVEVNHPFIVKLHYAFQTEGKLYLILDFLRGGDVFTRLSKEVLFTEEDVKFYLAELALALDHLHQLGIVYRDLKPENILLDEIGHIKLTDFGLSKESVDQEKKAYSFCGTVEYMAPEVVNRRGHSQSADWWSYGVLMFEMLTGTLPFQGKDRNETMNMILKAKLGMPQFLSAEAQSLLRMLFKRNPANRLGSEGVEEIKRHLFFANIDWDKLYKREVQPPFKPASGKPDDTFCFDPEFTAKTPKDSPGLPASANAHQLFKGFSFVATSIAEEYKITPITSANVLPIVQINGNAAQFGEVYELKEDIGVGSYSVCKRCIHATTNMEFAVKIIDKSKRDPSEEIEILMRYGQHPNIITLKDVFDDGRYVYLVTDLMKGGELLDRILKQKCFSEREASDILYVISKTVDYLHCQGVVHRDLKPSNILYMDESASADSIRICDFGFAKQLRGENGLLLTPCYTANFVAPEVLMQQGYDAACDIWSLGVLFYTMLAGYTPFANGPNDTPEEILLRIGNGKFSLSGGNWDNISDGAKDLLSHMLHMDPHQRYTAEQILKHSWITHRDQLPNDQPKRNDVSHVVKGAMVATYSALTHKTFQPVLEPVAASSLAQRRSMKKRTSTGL

[8] = molecular target: Calcium/calmodulin-dependent protein kinase type II subunit alpha (Homo sapiens) (UniProt Q9UQM7); test: CAMK2A (CaMKII alpha) Kinase screen; settings: Compound concentration 1.0 uM
Chain of Calcium/calmodulin-dependent protein kinase type II subunit alpha (Homo sapiens) (Q9UQM7 whole entry): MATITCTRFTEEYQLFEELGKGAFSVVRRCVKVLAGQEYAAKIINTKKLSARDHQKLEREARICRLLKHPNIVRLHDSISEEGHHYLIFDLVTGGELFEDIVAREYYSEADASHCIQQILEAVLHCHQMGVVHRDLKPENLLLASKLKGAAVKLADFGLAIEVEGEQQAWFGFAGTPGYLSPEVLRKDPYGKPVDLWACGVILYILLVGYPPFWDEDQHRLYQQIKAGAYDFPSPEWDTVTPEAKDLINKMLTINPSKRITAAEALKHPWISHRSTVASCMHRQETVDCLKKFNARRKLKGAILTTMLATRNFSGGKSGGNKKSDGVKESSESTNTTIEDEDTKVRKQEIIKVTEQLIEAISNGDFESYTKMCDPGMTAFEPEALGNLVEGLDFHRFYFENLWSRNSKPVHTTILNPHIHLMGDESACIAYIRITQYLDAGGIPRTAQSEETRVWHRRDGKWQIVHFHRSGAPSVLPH

[9] = molecular target: Mitogen-activated protein kinase kinase kinase 20 (Homo sapiens) (UniProt Q9NYL2); test: ZAK Kinase screen; settings: Compound concentration 1.0 uM
Chain of Mitogen-activated protein kinase kinase kinase 20 (Homo sapiens) (Q9NYL2 2-800 limits assumed): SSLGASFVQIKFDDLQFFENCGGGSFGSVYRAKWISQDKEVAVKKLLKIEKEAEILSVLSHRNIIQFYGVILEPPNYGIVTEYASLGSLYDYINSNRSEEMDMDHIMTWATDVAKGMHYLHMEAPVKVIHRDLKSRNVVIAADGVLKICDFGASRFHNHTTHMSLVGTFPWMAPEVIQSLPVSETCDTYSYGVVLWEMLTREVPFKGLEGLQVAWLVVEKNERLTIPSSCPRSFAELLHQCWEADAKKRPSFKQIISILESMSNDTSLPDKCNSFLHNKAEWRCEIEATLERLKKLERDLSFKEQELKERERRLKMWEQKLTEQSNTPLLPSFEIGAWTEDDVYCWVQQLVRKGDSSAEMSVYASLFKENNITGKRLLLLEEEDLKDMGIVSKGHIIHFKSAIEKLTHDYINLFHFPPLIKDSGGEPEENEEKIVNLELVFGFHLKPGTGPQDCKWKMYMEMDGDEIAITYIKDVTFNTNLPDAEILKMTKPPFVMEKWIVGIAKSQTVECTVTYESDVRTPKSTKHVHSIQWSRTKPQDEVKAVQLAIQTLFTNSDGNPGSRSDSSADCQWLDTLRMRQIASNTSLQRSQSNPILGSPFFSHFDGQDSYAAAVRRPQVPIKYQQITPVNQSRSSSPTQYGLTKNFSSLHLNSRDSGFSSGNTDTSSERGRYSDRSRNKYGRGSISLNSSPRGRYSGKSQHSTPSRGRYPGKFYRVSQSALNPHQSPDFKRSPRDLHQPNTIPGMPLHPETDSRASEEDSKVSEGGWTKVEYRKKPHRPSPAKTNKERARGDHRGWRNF

[10] = molecular target: T3, Activin receptor type-1B (Homo sapiens) (UniProt P36896); test: ACVR1B (ALK4) Kinase screen; settings: Compound concentration 1.0 uM
T3 sequence (whole entry): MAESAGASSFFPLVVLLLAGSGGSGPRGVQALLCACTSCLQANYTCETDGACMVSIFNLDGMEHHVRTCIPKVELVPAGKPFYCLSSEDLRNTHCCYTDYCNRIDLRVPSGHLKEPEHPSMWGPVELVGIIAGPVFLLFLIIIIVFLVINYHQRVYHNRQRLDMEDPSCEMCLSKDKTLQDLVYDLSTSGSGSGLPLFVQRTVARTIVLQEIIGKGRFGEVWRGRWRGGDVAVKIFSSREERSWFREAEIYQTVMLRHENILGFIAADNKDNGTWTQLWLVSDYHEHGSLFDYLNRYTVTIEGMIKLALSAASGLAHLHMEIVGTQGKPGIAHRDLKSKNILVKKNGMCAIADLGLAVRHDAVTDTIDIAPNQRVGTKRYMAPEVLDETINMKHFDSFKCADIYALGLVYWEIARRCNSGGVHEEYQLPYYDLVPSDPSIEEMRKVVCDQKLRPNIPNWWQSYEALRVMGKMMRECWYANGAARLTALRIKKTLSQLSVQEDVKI

Measured: inhibition

C[C@@H]1CN(c2cc(-c3n[nH]c4ccc(OC5(C)CC5)cc34)ncn2)C[C@H](C)O1 [MLi-2]
inactive: [1] -3.28% | [2] 5.55% | [3] 1% | [4] 7.68% | [5] 1.06% | [6] 0.385% | [7] 3.23% | [8] 7.96% | [9] 4.32% | [10] -0.724%
